The source of these data is ChEMBL document CHEMBL2074061, “Inhibition of transport across the hepatocyte canalicular membrane by the antibiotic fusidate” (Biochem Pharmacol, 2002).

The target of test [1] is T1, ATP-binding cassette sub-family C member 2 (Rattus norvegicus, UniProt Q63120). The test can be described thus: TP_TRANSPORTER: inhibition of LTC4 uptake in Mrp2-expressing HEK cells. It is filed as functional, cell-based, HEK293.
For test [2], the target named is T1, ATP-binding cassette sub-family C member 2. As to the kind of experiment: TP_TRANSPORTER: inhibition of E217betaG uptake in canalicular membrane vesicles of rat liver. It is filed as functional, cell membranes, Canalicular membrane vesicle.
Test [3] concerns the target T2, Bile salt export pump (Rattus norvegicus, UniProt O70127).
T2 sequence (O70127 whole entry): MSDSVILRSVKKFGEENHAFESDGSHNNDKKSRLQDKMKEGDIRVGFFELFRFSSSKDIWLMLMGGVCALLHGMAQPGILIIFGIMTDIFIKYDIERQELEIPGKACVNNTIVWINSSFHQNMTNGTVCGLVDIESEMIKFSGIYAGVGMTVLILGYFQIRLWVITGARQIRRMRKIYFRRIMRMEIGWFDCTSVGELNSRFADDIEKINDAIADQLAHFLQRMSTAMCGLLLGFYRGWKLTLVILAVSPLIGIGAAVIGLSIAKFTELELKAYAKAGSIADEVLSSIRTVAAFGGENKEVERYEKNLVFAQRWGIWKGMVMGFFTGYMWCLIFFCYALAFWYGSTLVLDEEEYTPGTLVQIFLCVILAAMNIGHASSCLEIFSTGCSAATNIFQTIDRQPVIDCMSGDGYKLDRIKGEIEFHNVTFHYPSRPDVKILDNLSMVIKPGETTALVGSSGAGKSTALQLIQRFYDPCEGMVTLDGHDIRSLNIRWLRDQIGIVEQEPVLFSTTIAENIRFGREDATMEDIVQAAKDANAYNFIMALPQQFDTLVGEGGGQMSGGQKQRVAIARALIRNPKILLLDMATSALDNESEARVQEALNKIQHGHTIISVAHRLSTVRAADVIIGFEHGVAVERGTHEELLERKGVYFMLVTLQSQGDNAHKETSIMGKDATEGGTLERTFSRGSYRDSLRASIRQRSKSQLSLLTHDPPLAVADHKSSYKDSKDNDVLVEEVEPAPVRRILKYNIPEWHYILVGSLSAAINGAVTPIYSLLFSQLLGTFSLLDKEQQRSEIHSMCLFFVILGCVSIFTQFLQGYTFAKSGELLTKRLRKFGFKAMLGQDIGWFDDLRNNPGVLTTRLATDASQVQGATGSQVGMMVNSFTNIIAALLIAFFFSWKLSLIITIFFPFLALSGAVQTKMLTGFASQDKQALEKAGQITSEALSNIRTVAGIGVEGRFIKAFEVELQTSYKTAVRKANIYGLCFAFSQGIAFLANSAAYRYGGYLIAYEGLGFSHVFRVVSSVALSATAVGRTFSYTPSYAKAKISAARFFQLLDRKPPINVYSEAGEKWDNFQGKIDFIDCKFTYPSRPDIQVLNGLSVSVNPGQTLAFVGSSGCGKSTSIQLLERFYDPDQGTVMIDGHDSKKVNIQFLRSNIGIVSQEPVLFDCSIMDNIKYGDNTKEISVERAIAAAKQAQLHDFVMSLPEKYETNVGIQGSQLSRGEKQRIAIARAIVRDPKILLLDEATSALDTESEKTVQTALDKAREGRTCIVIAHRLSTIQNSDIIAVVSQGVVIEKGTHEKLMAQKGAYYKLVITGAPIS
As to the kind of experiment: TP_TRANSPORTER: inhibition of Taurocholate uptake in canalicular membrane vesicles of rat liver. It is filed as functional, cell membranes, Canalicular membrane vesicle.

The target of test [4] is T1, ATP-binding cassette sub-family C member 2. The test can be described thus: TP_TRANSPORTER: inhibition of LTC4 uptake in canalicular membrane vesicles of rat liver. It is filed as functional, cell membranes, Canalicular membrane vesicle.

T1 sequence (Q63120 whole entry): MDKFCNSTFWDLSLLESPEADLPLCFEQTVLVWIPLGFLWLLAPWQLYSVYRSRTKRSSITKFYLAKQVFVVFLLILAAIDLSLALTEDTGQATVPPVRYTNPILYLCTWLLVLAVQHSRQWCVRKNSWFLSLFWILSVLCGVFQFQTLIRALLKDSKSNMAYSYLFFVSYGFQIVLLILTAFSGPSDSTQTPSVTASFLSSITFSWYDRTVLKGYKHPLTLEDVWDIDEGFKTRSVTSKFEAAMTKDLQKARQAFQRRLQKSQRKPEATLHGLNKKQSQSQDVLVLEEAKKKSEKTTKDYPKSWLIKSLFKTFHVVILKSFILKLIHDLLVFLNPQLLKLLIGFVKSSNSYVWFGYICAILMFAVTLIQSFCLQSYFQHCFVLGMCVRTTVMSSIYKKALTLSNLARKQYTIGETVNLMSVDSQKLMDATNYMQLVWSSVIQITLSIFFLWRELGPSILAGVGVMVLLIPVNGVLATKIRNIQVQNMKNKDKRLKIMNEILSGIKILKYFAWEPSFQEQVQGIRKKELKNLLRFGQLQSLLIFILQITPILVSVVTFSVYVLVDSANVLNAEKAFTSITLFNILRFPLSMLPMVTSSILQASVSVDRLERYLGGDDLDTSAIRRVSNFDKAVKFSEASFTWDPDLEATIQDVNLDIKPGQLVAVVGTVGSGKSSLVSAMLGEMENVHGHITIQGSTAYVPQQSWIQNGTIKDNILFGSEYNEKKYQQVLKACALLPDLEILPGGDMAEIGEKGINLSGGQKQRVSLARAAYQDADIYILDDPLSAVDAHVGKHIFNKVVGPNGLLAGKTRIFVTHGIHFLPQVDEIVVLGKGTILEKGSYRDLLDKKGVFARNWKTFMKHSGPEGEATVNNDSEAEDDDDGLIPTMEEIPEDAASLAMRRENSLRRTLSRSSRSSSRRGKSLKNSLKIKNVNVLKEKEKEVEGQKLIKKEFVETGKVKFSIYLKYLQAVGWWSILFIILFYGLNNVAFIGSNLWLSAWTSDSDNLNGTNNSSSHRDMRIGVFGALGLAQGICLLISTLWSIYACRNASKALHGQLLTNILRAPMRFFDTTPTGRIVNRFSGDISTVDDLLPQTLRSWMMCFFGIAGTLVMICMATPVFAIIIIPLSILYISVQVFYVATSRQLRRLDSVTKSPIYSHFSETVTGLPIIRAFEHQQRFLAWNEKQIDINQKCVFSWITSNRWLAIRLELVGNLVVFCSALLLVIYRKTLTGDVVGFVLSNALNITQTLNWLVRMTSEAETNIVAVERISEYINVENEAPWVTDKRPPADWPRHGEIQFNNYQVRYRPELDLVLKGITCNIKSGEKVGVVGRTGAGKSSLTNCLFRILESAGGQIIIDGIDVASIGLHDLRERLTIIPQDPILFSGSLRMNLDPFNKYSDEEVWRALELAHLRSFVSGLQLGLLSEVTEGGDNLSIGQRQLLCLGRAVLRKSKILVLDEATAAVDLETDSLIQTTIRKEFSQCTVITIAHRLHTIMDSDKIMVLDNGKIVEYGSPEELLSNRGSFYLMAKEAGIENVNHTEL

Consider `CC(=O)O[C@H]1C[C@@]2(C)[C@@H](C[C@@H](O)[C@H]3[C@@]4(C)CC[C@@H](O)[C@@H](C)[C@@H]4CC[C@@]32C)/C1=C(\CCC=C(C)C)C(=O)O` [FUSIDIC ACID], for which the Ki (as a rule, a measure of affinity in units of concentration, obtained from inhibition or displacement) was 13 µM in test [1], 7.6 µM in test [2], 2.2 µM in test [3] and 5.5 µM in test [4].
